Laboratory results reported in paper PMC6112376, “Comprehensive Analyses and Prioritization of Tox21 10K Chemicals Affecting Mitochondrial Function by in-Depth Mechanistic Studies” (Environmental Health Perspectives, 2018).
Where a name gives a salt, the structure may show the parent alone. Read-outs that look alike come from different tables or passages of the source.

Key:
[1] = tested on: rat primary hepatocytes
[2] = tested on: HepG2 cells; settings: cited from earlier work; for IC50: read-out: MMP assays IC50 (µM) qHTS-HepG2
[3] = tested on: HepG2 cells; assay: cells; settings: Homo sapiens; for Emax: HepG2, read-out: MMP assays efficacy (%) HepG2
[4] = tested on: rat primary hepatocytes; assay: MMP assay in rat primary hepatocytes; settings: for IC50: Rattus norvegicus, Hepatocyte
[5] = HepG2, read-out: MMP assays IC50 (µM) HepG2
[6] = read-out: MMP assays IC50 (µM) Rat Hepatocytes

| Compound | MMP assays efficacy (%) Rat Hepatocytes [1] | MMP assays efficacy (%) qHTS-HepG2 [2] [%] | IC50 [2] [µM] | IC50 [3, 5] [µM] | Emax [3] [%] | MMP assays IC50 (µM) Rat Hepatocytes [4] | IC50 [4, 6] [µM] | IC50 ([3]; HepG2, read-out: IC50 in HepG2 cells (MMP, tier-one retest)) [µM] | IC50 ([4]; 1 h, read-out: IC50 in rat primary hepatocytes (MMP, tier-one retest)) [µM] |
| --- | --- | --- | --- | --- | --- | --- | --- | --- | --- |
| Clc1ccccc1-c1ccccc1Cl [2,2'-Dichlorobiphenyl] | inactive | -71±13 | 31.1 ± 12.3 | 63.1 | 76 | inactive | – | – | – |
| COc1ccc(C(=O)c2ccccc2O)c(O)c1 [2,2'-Dihydroxy-4-methoxybenzophenone] | -47±18% | -98±6 | 9.89 ± 1.04 | 5.24 | 103 | – | 11.1 ± 5.21 | – | – |
| Oc1cc(Cl)c(Cl)c(Cl)c1Cl [2,3,4,5-Tetrachlorophenol] | -76±25% | -99±11 | 4.93 ± 2.04 | 7.94 | 121 | – | 11.6 ± 5.42 | – | – |
| Oc1ccc(Cl)c(Cl)c1Cl [2,3,4-Trichlorophenol] | -59±36% | -101±8 | 5.23 ± 1.52 | 7.94 | 101 | – | 41.8 ± 14.4 | – | – |
| Oc1c(Cl)c(Cl)cc(Cl)c1Cl [2,3,5,6-Tetrachlorophenol] | -77±36% | -94±3 | 6.42 ± 2.38 | 8.91 | 92 | – | 9.2 ± 2.96 | – | – |
| Oc1cc(Cl)cc(Cl)c1Cl [2,3,5-Trichlorophenol] | -77±25% | -99±7 | 5.8 ± 1.05 | 6.31 | 114 | – | 27.7 ± 10.4 | – | – |
| CC(C)(C)c1cc(O)c(C(C)(C)C)cc1O [2,5-Di-tert-butylbenzene-1,4-diol] | -73±5% | -107±12 | 7.41 ± 1.27 | 7.94 | 98 | – | 39.1 ± 15.5 | – | – |
| CCC(C)c1cccc(C(C)CC)c1O (centres unmarked) [2,6-Di(butan-2-yl)phenol] | inactive | -85±30 | 13.7 ± 3.19 | 15.8 | 110 | inactive | – | – | – |
| Cc1c(N)cccc1N [2,6-Toluenediamine] | -44±11% | -72±11 | 15.7 ± 10 | 28.2 | 85 | – | 32.2 ± 7.36 | – | – |
| CC(C)(C)c1cc([N+](=O)[O-])cc(C(C)(C)C)c1O [2,6-di-tert-butyl-4-nitrophenol] | -109±11% | -96±13 | 0.17 ± 0.05 | – | 108 | – | – | 0.11 | 0.29 |
| CCC(C)c1ccccc1O (centres unmarked) [2-(Butan-2-yl)phenol] | inactive | -82±8 | 49.5 ± 9.45 | 25.1 | 32 | inactive | – | – | – |
| CC(C)CC(=O)C1C(=O)c2ccccc2C1=O [2-Isovaleryl-1,3-indanedione] | -107±61% | -99±5 | 5.24 ± 0.9 | 56.2 | 108 | – | 22.2 ± 11.1 | – | – |
| Cc1cc(C(C)(C)c2ccc(O)c(C)c2)ccc1O [3,3'-Dimethylbisphenol A] | -56±26% | -118±22 | 8.88 ± 3.37 | 11.2 | 110 | – | 34.4 ± 4.73 | – | – |
| Oc1cc(Cl)c(Cl)c(Cl)c1 [3,4,5-Trichlorophenol] | -100±4% | – | 3.8 ± 1.74 | 5.01 | 96 | – | 33.8 ± 17.2 | – | – |
| Oc1ccc(Cl)c(Cl)c1 [3,4-Dichlorophenol] | -45±32% | -104±7 | 9.18 ± 2.63 | 15.8 | 114 | – | 53.9 ± 13 | – | – |
| Oc1cc(Cl)cc(Cl)c1 [3,5-Dichlorophenol] | -81±35% | -96±8 | 9.79 | 11.2 | 113 | – | 46.9 ± 8.44 | – | – |
| O=C(Nc1ccc(Cl)c(Cl)c1)c1cc(Cl)cc(Cl)c1O [3,5-Dichlorosalicyl-3,4-dichloroanilide] | -67±6% | -105±6 | 0.22 ± 0.09 | 0.11 | 93 | – | 0.38 ± 0.03 | – | – |
| Cc1cccc(N)c1N [3-Methylbenzene-1,2-diamine] | -56±11% | -67±14 | 21.7 ± 3.65 | 28.2 | 90 | – | 36.6 ± 11.8 | – | – |

| Compound | MMP assays efficacy (%) Rat Hepatocytes [1] | MMP assays efficacy (%) qHTS-HepG2 [2] [%] | IC50 [2] [µM] | IC50 [3, 5] [µM] | Emax [3] [%] | MMP assays IC50 (µM) Rat Hepatocytes [4] | IC50 [4, 6] [µM] | IC50 ([3]; HepG2, read-out: IC50 in HepG2 cells (MMP, tier-one retest)) [µM] | IC50 ([4]; 1 h, read-out: IC50 in rat primary hepatocytes (MMP, tier-one retest)) [µM] |
| --- | --- | --- | --- | --- | --- | --- | --- | --- | --- |
| Nc1ccc(/N=N/c2ccc(N)cc2)cc1 [4,4'-Diaminoazobenzene] | -50±40% | -86±5 | 10.5 ± 3.59 | 5.62 | 87 | – | 26.6 ± 12.5 | – | – |
| O=S(=O)(c1ccc(Cl)cc1)c1ccc(Cl)cc1 [4,4'-Dichlorodiphenyl sulfone] | -72±26% | -99±22 | 21.3 ± 6.06 | 35.5 | 96 | – | 29.9 ± 2.43 | – | – |
| Nc1ccc(Cc2ccc(N)c(Cl)c2)cc1Cl [4,4'-Methylenebis(2-chloroaniline)] | -52±15% | -98±24 | 49.1 ± 17 | 39.8 | 87 | – | 56.2 | – | – |
| CC(C)(C)CC(C)(C)c1ccc(O)cc1 [4-(1,1,3,3-Tetramethylbutyl)phenol] | inactive | -103±8 | 4.25 ± 0.92 | 4.89 | 100 | inactive | – | – | – |
| CCC(C)(C)c1ccc(O)cc1 [4-(2-Methylbutan-2-yl)phenol] | inactive | -95±13 | 22.7 ± 3.07 | 35.5 | 96 | inactive | – | – | – |
| CCC(C)c1ccc(O)cc1 (centres unmarked) [4-(Butan-2-yl)phenol] | inactive | -101±7 | 32 ± 3.64 | 35.5 | 77 | inactive | – | – | – |
| Nc1ccc(Cl)cc1N [4-Chloro-1,2-diaminobenzene] | -88±17% | -94±12 | 2.38 ± 1.6 | 2 | 90 | – | 11 ± 4.37 | – | – |
| O=C=Nc1ccc(Cl)cc1 [4-Chlorophenyl isocyanate] | -98±7% | -110±18 | 0.27 ± 0.11 | 0.71 | 99 | – | 1.56 ± 0.39 | – | – |
| CCCCCCc1ccc(-c2ccc(C#N)cc2)cc1 [4-Hexyl-4'-cyanobiphenyl] | -56±24% | -109±6 | 42.5 ± 15.4 | 31.6 | 59 | – | 17.5 ± 15.6 | – | – |
| CC(=O)CC(c1ccc([N+](=O)[O-])cc1)c1c(O)c2ccccc2oc1=O (centres unmarked) [Acenocoumarol] | -64±56% | -96±12 | 8.36 ± 1.07 | 9.32 | 89 | – | 4.59 ± 1.82 | – | – |
| CC[C@@]1(O)C[C@H](O[C@H]2C[C@H](N(C)C)[C@H](O[C@H]3C[C@H](O)[C@H](O[C@H]4CCC(=O)[C@H](C)O4)[C@H](C)O3)[C@H](C)O2)c2c(cc3c(c2O)C(=O)c2c(O)cccc2C3=O)[C@H]1C(=O)OC [Aclarubicin hydrochloride] | -49±12% | -70±15 | 3.15 ± 2.82 | 2.45 | 39 | – | 6.89 ± 9.73 | – | – |
| CCCSc1ccc2nc(NC(=O)OC)[nH]c2c1 [Albendazole] | -85±78% | -78±15 | 9.35 ± 1.83 | 19.4 | 107 | – | 15.5 ± 21.7 | – | – |
| ClC1=C(Cl)C2(Cl)C3C4C=CC(C4)C3C1(Cl)C2(Cl)Cl (centres unmarked) [Aldrin] | inactive | -86±11 | 31.2 ± 7.21 | 39.8 | 106 | inactive | – | – | – |
| O=C1c2ccccc2C(=O)c2c1ccc(O)c2O [Alizarin] | -80±8% | -101±8 | 11 ± 1.41 | 13.8 | 94 | – | 11.9 ± 7.79 | – | – |
| C=CC[C@]1(O)CC[C@H]2[C@@H]3CCC4=CCCC[C@@H]4[C@H]3CC[C@@]21C [Allylestrenol] | inactive | -52±13 | 12.8 ± 3.68 | 31.6 | 97 | inactive | – | – | – |
| N=C(N)NN=C1C=CC(=NNC(N)=S)C=C1 [Ambazone] | -52±11% | -98±7 | 5.6 ± 3.23 | 3.98 | 61 | – | 1.98 ± 2.22 | – | – |
| COc1cc(NS(C)(=O)=O)ccc1Nc1c2ccccc2nc2ccccc12 [Amsacrine hydrochloride] | -110±40% | -75±13 | 10.3 ± 2.45 | 56.2 | 110 | – | 37.6 ± 3.06 | – | – |
